The values that follow come from patent US20130102009A1, “SIRTUIN ACTIVATORS AND ACTIVATION ASSAYS” (priority 2010, published 2013).

Where a name gives a salt, the structure may show the parent alone.

One assay addresses T1, SIRT1(183-664) (Homo sapiens, UniProt Q96EB6).
T1 construct: the truncated version used for biophysical studies SIRT1(183-664); made in house
T1 sequence (Q96EB6 183-664): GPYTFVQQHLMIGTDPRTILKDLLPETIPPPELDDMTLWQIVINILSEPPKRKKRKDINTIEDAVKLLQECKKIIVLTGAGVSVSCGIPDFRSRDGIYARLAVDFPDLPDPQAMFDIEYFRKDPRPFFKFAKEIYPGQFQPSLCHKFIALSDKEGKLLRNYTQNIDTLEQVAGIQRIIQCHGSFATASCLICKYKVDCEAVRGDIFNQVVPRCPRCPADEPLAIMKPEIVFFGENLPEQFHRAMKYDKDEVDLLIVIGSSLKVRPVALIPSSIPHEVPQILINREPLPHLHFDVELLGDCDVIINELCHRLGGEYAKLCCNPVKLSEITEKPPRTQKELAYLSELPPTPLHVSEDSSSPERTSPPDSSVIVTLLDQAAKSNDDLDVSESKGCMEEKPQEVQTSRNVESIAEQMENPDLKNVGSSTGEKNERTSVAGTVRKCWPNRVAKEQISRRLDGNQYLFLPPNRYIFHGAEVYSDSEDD
Nature of the assay: Fluorescence binding experiment with SIRT1(183-664). The note with it: excitation 315 nm, emission 450 nm; read-out: Kx (μM), Fluorescence. The procedure: All peptides were prepared by BioPeptide (San Diego, Calif.) and shown to be at least 95% pure by analytical HPLC analysis. Bovine glutamate dehydrogenase (GDH), α-ketoglutarate, NADH and NAD^+ were from Sigma Chemical Company. Full-length, human SIRT1 and the truncated version used for biophysical studies SIRT1(183-664) were prepared as described previously, and shown to have equivalent kinetic properties (Milne et al. (2007) Nature 450, 712-716). The nicotinamidase PNC1 was prepared as described by Denu and colleagues (Smith et al. (2009) Anal Biochem 394, 101-109).
SIRT1(183-664) was dialyzed against a buffer composed of 137 mM NaCl, 2.7 mM KCl, 1 mM MgCl2, 2 mM TCEP, 5% (v/v) glycerol and 50 mM HEPES-NaOH, pH 7.3. 14 was dissolved in the final dialysis buffer and its pH values were adjusted to match that of the protein solution. The fluorescence emission spectra of 14 in the absence or presence of different concentrations of enzyme was monitored on the SpectraMax M5 with excitation at 315 nm. The fluorescence intensity change at 450 nm was plotted against the concentration of SIRT1(183-664) and fitted using a standard binding equation.

The target in assay [1] is Ac-Arg-His-Lys-Lys^Ac-AMC. Nature of the assay: ITC binding of STACs to Ac-Arg-His-Lys-Lys^Ac-X, X=AMC. The note with it: 10% DMSO for SRT1720, SRT2183 and 10, no cosolvent for SRT1460. The procedure: ITC experiments were performed using either a VP-ITC system or iTC200 system (MicroCal) at 26° C. in a buffer composed of 137 mM NaCl, 2.7 mM KCl, 1 mM MgCl2, 2 mM TCEP, 5% (v/v) glycerol and 50 mM HEPES-NaOH, pH 7.3. SIRT1(183-664) was purified and dialyzed against the buffer, centrifuged, and degassed before the experiment. The peptide and compounds were dissolved in the final dialysis buffer and their pH values were adjusted to match that of the protein solution. […] To characterize this interaction using the iTC200 system, 1 mM TAMRA-peptide was injected in 20 aliquots of 2 μL, (except the first injection, which was 0.5 μL) into a 0.202 mL sample cell containing 100 μM STAC. For STACs with poor solubility, the concentrations were adjusted accordingly. […] In all cases, data was corrected for the heat of dilution and fitted using a nonlinear least-squares routine using a single-site binding model with Origin for ITC v7.0383 (Microcal) with the stoichiometry (n), the enthalpy of the reaction (ΔH) and the association constant (Ka) calculated. Table 2 summarizes Kd values for the binding of STACs to […]. Note that except for SRT1460, the solubility of the compounds required that these ITC experiments be done in solutions containing 10% DMSO.

`CN(C)Cc1cnc2sc(-c3ccccc3NC(=O)c3cnc4ccccc4n3)nc2c1` [Compound 2, N-(2-(6-((dimethylamino)methyl)thiazolo[5,4-b]pyridin-2-yl)phenyl)quinoxaline-2-carboxamide]: the Kd at SIRT1(183-664) is 0.27 µM.
On to `CN(C)CCCNc1cc(-c2nc3c(NC(=O)c4ccc(CN5CCNCC5)cc4)cccc3[nH]2)ccn1` [Compound 14, N-(2-(2-(3-(dimethylamino)propylamino)pyridin-4-yl)-1H-benzo[d]imidazol-4-yl)-4-(piperazin-1-ylmethyl)benzamide trihydrochloride], for which, on SIRT1(183-664), the Kd worked out at 0.27 µM.
In turn, `CCCCc1nc(NC2CCNCC2)cc(C(=O)Nc2ccccc2-c2nc3cc(COC4CCNCC4)cnc3s2)n1` [Compound 10, 2-butyl-6-(piperidin-4-ylamino)-N-(2-(6-((piperidin-4-yloxy)methyl)thiazolo[5,4-b]pyridin-2-yl)phenyl)pyrimidine-4-carboxamide] had a Kd in assay [1] of over 500 µM.
In the case of `COc1cc(C(=O)Nc2ccccc2-c2cn3c(CN4CCNCC4)csc3n2)cc(OC)c1OC` [SRT1460], the Kd in assay [1] is over 500 µM.
